# Data taken from ChEMBL document CHEMBL5465560, “Selectivity Literature for EUbOPEN Chemogenomic Library” (2024).
# Experiments:
# [1] = biological target: Muscarinic acetylcholine receptor M3 (Homo sapiens, UniProt P20309); test: Selectivity interaction (GPCR panel (PDSP screen)) EUB0000311b CHRM3; conditions: at 10 µM
# [2] = biological target: Ribosomal protein S6 kinase alpha-2 (Homo sapiens) (UniProt Q15349); test: Selectivity interaction (KinomeScan (DiscoverX)) EUB0000595a RPS6KA2; conditions: at 10 µM
# Chain of Ribosomal protein S6 kinase alpha-2 (Homo sapiens) (Q15349 whole entry): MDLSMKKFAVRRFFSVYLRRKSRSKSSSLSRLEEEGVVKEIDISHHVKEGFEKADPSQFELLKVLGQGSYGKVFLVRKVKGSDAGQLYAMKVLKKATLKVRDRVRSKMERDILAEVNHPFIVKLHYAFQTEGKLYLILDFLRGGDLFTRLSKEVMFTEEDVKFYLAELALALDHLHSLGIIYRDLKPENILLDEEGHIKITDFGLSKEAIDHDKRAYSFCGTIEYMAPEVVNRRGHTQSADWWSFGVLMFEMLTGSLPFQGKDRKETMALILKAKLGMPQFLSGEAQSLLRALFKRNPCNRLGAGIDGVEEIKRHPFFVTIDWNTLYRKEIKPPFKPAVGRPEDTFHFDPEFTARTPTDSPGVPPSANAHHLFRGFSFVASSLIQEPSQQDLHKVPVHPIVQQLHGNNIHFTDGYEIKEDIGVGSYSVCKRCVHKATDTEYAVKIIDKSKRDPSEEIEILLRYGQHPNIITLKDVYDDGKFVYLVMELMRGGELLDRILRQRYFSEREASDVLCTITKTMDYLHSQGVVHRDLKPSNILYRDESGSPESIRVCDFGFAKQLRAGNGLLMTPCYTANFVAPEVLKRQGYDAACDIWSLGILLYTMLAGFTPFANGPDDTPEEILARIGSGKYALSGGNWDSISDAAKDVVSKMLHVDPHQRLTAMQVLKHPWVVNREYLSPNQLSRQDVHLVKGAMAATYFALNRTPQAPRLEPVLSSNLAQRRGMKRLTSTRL
# [3] = biological target: T1, Uncharacterized serine/threonine-protein kinase SBK3 (Homo sapiens) (UniProt P0C264); test: Selectivity interaction (KinomeScan (DiscoverX)) EUB0000666a SBK3; conditions: at 10 µM
# T1 sequence (whole entry): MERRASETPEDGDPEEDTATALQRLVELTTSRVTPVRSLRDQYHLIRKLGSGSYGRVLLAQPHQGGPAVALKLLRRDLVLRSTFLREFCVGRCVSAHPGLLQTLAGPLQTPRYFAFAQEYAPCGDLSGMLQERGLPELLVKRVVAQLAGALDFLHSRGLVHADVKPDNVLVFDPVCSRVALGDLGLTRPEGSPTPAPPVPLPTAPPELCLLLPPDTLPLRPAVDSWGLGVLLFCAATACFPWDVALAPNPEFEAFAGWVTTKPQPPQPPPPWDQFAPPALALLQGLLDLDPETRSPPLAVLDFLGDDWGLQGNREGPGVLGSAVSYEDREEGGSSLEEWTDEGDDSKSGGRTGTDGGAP
# [4] = tested on: T2, Receptor-type tyrosine-protein kinase FLT3 (Homo sapiens), P36888 [N841I]; conditions: at 10 µM
# T2 sequence (whole entry): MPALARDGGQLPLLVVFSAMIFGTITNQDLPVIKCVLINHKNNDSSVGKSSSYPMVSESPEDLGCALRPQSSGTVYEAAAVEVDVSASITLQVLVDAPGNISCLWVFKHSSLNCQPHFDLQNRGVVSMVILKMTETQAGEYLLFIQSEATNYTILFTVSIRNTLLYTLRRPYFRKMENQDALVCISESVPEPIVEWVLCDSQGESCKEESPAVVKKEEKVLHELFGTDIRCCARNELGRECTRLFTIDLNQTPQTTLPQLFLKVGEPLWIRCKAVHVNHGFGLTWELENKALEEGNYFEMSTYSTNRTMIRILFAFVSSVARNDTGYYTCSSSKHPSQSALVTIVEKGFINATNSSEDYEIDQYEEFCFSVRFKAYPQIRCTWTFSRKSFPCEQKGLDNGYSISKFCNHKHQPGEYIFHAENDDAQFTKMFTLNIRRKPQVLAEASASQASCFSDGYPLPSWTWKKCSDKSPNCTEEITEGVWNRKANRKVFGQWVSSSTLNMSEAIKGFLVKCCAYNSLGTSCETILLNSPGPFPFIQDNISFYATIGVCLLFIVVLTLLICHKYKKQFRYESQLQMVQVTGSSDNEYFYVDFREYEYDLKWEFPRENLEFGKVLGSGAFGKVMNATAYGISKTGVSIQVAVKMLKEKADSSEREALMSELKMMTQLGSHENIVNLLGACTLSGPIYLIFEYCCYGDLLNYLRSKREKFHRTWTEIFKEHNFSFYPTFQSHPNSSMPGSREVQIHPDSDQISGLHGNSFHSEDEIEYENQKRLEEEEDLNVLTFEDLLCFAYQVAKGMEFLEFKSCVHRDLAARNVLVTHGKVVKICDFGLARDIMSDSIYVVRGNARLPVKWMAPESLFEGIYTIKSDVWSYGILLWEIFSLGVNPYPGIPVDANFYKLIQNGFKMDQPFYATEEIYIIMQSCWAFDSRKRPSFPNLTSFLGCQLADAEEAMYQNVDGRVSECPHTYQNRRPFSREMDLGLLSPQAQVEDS
# [5] = biological target: Sodium-dependent noradrenaline transporter (Homo sapiens, UniProt P23975); test: Selectivity interaction (Norepinephrine Transporter assay, human recombinant ) EUB0000877a SLC6A2
# Chain of Sodium-dependent noradrenaline transporter (P23975 whole entry): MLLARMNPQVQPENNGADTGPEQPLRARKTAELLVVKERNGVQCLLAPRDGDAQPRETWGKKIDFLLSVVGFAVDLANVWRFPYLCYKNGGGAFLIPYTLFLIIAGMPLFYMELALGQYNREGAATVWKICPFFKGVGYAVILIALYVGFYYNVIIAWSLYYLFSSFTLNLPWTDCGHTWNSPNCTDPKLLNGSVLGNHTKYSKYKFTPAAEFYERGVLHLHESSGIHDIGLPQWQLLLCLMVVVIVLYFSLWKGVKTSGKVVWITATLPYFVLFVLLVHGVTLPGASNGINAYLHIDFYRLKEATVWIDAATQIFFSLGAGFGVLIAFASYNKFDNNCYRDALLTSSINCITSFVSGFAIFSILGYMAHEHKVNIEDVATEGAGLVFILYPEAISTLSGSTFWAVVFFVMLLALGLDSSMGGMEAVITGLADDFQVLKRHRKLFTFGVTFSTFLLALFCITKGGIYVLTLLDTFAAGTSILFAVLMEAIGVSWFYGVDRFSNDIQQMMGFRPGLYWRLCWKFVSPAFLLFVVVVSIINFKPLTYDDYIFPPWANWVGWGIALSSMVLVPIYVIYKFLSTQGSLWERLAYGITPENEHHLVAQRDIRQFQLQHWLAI
# [6] = biological target: T3, Serine/threonine-protein kinase 3 (Homo sapiens) (UniProt Q13188); test: Selectivity interaction (Kinase panel (literature)) EUB0001199aCl STK3; conditions: at 1 µM
# T3 sequence (whole entry): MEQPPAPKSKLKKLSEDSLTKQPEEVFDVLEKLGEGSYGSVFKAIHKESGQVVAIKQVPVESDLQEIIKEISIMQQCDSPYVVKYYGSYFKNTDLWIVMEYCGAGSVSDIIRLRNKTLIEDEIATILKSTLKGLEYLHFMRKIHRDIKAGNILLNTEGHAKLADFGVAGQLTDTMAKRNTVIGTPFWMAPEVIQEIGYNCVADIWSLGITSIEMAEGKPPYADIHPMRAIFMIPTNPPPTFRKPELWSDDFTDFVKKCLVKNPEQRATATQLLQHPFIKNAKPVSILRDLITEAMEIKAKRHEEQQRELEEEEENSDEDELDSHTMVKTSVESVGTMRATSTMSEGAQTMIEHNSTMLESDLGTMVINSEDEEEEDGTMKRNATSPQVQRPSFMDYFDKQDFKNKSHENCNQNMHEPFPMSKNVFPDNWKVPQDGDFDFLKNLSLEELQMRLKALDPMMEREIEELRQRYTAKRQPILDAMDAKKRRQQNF
# [7] = biological target: T4, Dual specificity mitogen-activated protein kinase kinase 6 (Homo sapiens) (UniProt P52564); test: Selectivity interaction (ActivX KiNativ screen (kinase selectivity in THP-1 cell lysates)) EUB0000639a MAP2K6; assay type: subcellular; conditions: lysate, at 0.2 µM
# T4 sequence (whole entry): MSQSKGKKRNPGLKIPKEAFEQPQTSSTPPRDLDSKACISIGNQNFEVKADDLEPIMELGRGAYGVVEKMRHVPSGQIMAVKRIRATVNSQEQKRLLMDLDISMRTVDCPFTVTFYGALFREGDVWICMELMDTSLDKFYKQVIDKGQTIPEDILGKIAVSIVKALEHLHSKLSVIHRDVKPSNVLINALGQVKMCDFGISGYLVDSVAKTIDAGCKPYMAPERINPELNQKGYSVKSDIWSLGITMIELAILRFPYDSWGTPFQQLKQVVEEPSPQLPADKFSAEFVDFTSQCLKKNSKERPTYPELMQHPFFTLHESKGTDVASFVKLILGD
# Chain of Muscarinic acetylcholine receptor M3 (P20309 whole entry, looked up): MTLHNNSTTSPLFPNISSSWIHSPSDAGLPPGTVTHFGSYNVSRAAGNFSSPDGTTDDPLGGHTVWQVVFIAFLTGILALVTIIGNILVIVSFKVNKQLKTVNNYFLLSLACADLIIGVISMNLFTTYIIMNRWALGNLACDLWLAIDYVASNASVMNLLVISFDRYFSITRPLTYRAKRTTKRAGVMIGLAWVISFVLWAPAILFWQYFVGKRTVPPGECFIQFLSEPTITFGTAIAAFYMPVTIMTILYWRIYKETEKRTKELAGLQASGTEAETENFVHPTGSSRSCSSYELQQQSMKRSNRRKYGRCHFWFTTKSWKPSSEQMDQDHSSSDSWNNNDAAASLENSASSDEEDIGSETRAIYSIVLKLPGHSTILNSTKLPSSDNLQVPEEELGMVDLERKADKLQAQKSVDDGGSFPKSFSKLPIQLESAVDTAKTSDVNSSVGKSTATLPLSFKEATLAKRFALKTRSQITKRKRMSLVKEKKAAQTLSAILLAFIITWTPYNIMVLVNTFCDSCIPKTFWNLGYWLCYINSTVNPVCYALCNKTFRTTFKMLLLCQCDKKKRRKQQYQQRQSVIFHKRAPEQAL
compound,measurement,setting,value
CCc1ccccc1C(=O)Nc1n[nH]c2c(C)c(F)c(C3C(C#N)=C(C)N(C)C(C)=C3C#N)cc12 [BAY-3827],% of inhibition,[1],22.5%
COCC(=O)NC/C=C/c1ccc2ncnc(Nc3ccc(Oc4ccc(C)nc4)c(C)c3)c2c1 [CP-724714],% of control,[2],78%
O=C(NOC[C@H](O)CO)c1ccc(F)c(F)c1Nc1ccc(I)cc1F,% of control,[3],100%
Cc1cc([C@@H](C)Nc2ccccc2C(=O)O)c2nc(N3CCOCC3)cc(=O)n2c1 [AZD-6482],% of control,[4],44%
CCC(=O)N1CC[C@H](Nc2ncnc3c2CN(c2cnc(OC)c(C(F)(F)F)c2)CC3)C1 [LENIOLISIB],IC50,[5],> 30 µM
CN1Cc2nccc(-c3cn(C)nc3-c3ccc(F)cc3)c2C1=O,% of inhibition,[6],-2%
CC[C@@H]1[C@H](F)C(=O)N[C@@H]1COc1nccc2cc(C(N)=O)c(OC)cc12 [ZIMLOVISERTIB],% of inhibition,[7],12.8%
